Values after ≈ are worked out from the molar mass of the structure shown. Values joined by “and” are separate entries in the source; they are usually repeats but may differ in a detail not shown here. Equal values may be shown once. Blank lines part the entries; values can stand above or below the compound they belong to.
What was measured:
Experiment in all cases: ≥ marks a high value that may be exact or a test limit, other limits are often not marked, values filed in µg/mL are converted to µM
Acinetobacter baumannii = system: Acinetobacter baumannii
Enterococcus faecium = system: Enterococcus faecium
[1] = system: Escherichia coli ATCC 25922
Klebsiella pneumoniae = system: Klebsiella pneumoniae
Pseudomonas aeruginosa = system: Pseudomonas aeruginosa
[2] = system: Staphylococcus aureus ATCC 43300
Streptococcus pneumoniae = system: Streptococcus pneumoniae
[3] = system: Klebsiella pneumoniae ATCC 700603
[4] = system: Pseudomonas aeruginosa ATCC 27853
[5] = system: Staphylococcus aureus ATCC 29213
[6] = system: Staphylococcus aureus ATCC 33591
[7] = system: Staphylococcus aureus ATCC 700699
[8] = system: Bacillus cereus ATCC 11778
[9] = system: Klebsiella aerogenes ATCC 13048
[10] = system: Salmonella enterica subsp. enterica serovar Typhimurium ATCC 14028
[11] = system: Staphylococcus aureus SAP 0017
Bacillus subtilis = system: Bacillus subtilis
Escherichia coli = system: Escherichia coli
Proteus vulgaris = system: Proteus vulgaris
Salmonella typhimurium = system: Salmonella typhimurium
[12] = system: Staphylococcus epidermidis
Streptococcus pyogenes = system: Streptococcus pyogenes
Candida albicans = system: Candida albicans
[13] = system: Enterococcus faecalis ATCC 29212
Escherichia coli UB1005 = system: Escherichia coli UB1005
[14] = system: Pseudomonas aeruginosa H103
[15] = system: Salmonella enterica serovar Typhimurium
[16] = system: Staphylococcus aureus ATCC 25923

MIC (Acinetobacter baumannii): 9.3 µM (≈ 21.6 µg/mL)
MIC (Enterococcus faecium): 8 µM (≈ 18.6 µg/mL)
MIC [1]: 3 µM (≈ 6.97 µg/mL)
MIC (Klebsiella pneumoniae): > 16 µM
MIC (Pseudomonas aeruginosa): 12 µM (≈ 27.9 µg/mL)
MIC [2]: 4 µM (≈ 9.3 µg/mL)
MIC (Streptococcus pneumoniae): 8 µM (≈ 18.6 µg/mL)
SMILES: CC[C@H](C)[C@H](NC(=O)CNC(=O)[C@H](Cc1cnc[nH]1)NC(=O)CNC(=O)CN)C(=O)N[C@@H](CCCN=C(N)N)C(=O)N[C@@H](CCCN=C(N)N)C(=O)N[C@H](C(=O)N[C@H](C(=O)N[C@@H](CCCN=C(N)N)C(=O)N[C@@H](CCCCN)C(=O)N[C@H](C(=O)N[C@H](C(=O)N[C@@H](Cc1cnc[nH]1)C(=O)N[C@H](C(=O)N[C@H](C(=O)N[C@@H](CCCCN)C(=O)N[C@@H](CCCCN)C(=O)NCC(=O)NCC(=O)N[C@@H](CS)C(N)=O)[C@@H](C)CC)[C@@H](C)CC)[C@@H](C)CC)[C@@H](C)CC)[C@@H](C)CC)[C@@H](C)CC [GGHGIRRIIRKIIHIIKKGGC]

MIC [1]: 100 µM (≈ 249 µg/mL)
MIC [3]: > 100 µM
MIC [4]: > 100 µM
MIC [5]: > 100 µM
MIC [6]: ≥ 100 µM
MIC [7]: ≥ 100 µM
SMILES: CC[C@H](C)[C@H](NC(=O)[C@H](CC(=O)O)NC(=O)[C@H](C)NC(=O)[C@H](C)NC(=O)[C@H](C)NC(=O)CNC(=O)[C@H](CCCCN)NC(=O)[C@H](CC(C)C)NC(=O)[C@@H](NC(=O)[C@H](CC(=O)O)NC(=O)[C@@H](NC(=O)[C@@H](NC(=O)CN)C(C)C)C(C)C)[C@@H](C)CC)C(=O)N[C@@H](C)C(=O)NCC(=O)N[C@@H](Cc1cnc[nH]1)C(=O)N[C@@H](CC(C)C)C(=O)N[C@@H](C)C(=O)N[C@@H](CO)C(=O)N[C@@H](CCCCN)C(=O)N[C@H](C(=O)N[C@@H](CCSC)C(=O)N[C@@H](CC(N)=O)C(=O)N[C@@H](CCCCN)C(=O)N[C@@H](CC(C)C)C(N)=O)C(C)C [GVVDILKGAAADIAGHLASKVMNKL]

MIC [1]: > 100 µM
MIC [3]: > 100 µM
MIC [4]: > 100 µM
MIC [5]: > 100 µM
MIC [6]: ≥ 100 µM
MIC [7]: ≥ 100 µM
SMILES: CC[C@H](C)[C@H](NC(=O)[C@H](CC(=O)O)NC(=O)[C@@H](NC(=O)[C@@H](NC(=O)CN)C(C)C)C(C)C)C(=O)N[C@@H](CC(C)C)C(=O)N[C@@H](CCCCN)C(=O)NCC(=O)N[C@@H](C)C(=O)N[C@@H](C)C(=O)N[C@@H](CCCCN)C(=O)N[C@@H](CC(=O)O)C(=O)N[C@@H](C)C(=O)N[C@@H](C)C(=O)NCC(=O)N[C@@H](Cc1cnc[nH]1)C(=O)N[C@@H](CC(C)C)C(=O)N[C@@H](C)C(=O)N[C@@H](CO)C(=O)N[C@@H](CCCCN)C(=O)N[C@H](C(=O)N[C@@H](CCSC)C(=O)N[C@@H](CC(N)=O)C(=O)N[C@@H](CCCCN)C(=O)N[C@@H](CC(C)C)C(N)=O)C(C)C [GVVDILKGAAKDAAGHLASKVMNKL]

MIC [1]: > 100 µM
MIC [3]: > 100 µM
MIC [4]: > 100 µM
MIC [5]: > 100 µM
MIC [6]: ≥ 100 µM
MIC [7]: ≥ 100 µM
SMILES: CC[C@H](C)[C@H](NC(=O)[C@H](CC(=O)O)NC(=O)[C@H](CCCCN)NC(=O)[C@H](C)NC(=O)[C@H](C)NC(=O)CNC(=O)[C@H](CCCCN)NC(=O)[C@H](CC(C)C)NC(=O)[C@@H](NC(=O)[C@H](CC(=O)O)NC(=O)[C@@H](NC(=O)[C@@H](NC(=O)CN)C(C)C)C(C)C)[C@@H](C)CC)C(=O)N[C@@H](C)C(=O)NCC(=O)N[C@@H](Cc1cnc[nH]1)C(=O)N[C@@H](C)C(=O)N[C@@H](CO)C(=O)N[C@@H](CCCCN)C(=O)N[C@H](C(=O)N[C@@H](CCSC)C(=O)N[C@@H](CC(N)=O)C(=O)N[C@@H](CCCCN)C(=O)N[C@@H](CC(C)C)C(N)=O)C(C)C [GVVDILKGAAKDIAGHASKVMNKL]

MIC [1]: > 100 µM
MIC [3]: > 100 µM
MIC [4]: > 100 µM
MIC [5]: > 100 µM
MIC [6]: ≥ 100 µM
MIC [7]: ≥ 100 µM
SMILES: CC[C@H](C)[C@H](NC(=O)[C@H](CC(=O)O)NC(=O)[C@H](CCCCN)NC(=O)[C@H](C)NC(=O)[C@H](C)NC(=O)CNC(=O)[C@H](CCCCN)NC(=O)[C@H](CC(C)C)NC(=O)[C@@H](NC(=O)[C@H](CC(=O)O)NC(=O)[C@@H](NC(=O)[C@@H](NC(=O)CN)C(C)C)C(C)C)[C@@H](C)CC)C(=O)N[C@@H](C)C(=O)NCC(=O)N[C@@H](Cc1cnc[nH]1)C(=O)N[C@@H](CC(C)C)C(=O)N[C@@H](C)C(=O)N[C@@H](CO)C(=O)N[C@@H](CCCCN)C(=O)N[C@@H](C)C(=O)N[C@@H](CCSC)C(=O)N[C@@H](CC(N)=O)C(=O)N[C@@H](CCCCN)C(=O)N[C@@H](CC(C)C)C(N)=O [GVVDILKGAAKDIAGHLASKAMNKL]

MIC [8]: ≥ 70.4 µM
MIC [1]: > 70.4 µM
MIC [9]: ≥ 70.4 µM
MIC [10]: > 70.4 µM
MIC [5]: > 70.4 µM
SMILES: CC[C@H](C)[C@H](N)C(=O)N[C@@H](CC(C)C)C(=O)NCC(=O)N[C@@H](CCCCN)C(=O)N[C@@H](C)C(=O)N[C@@H](Cc1c[nH]c2ccccc12)C(=O)N[C@@H](CCC(=O)O)C(=O)NCC(=O)N[C@@H](C)C(=O)N[C@@H](CCCCN)C(=O)N[C@@H](CO)C(=O)N[C@@H](CC(C)C)C(=O)N[C@@H](Cc1ccccc1)C(N)=O [ILGKAWEGAKSLF]

MIC [11]: 2 µM and 4 µM
SMILES: CC[C@H](C)[C@H](N)C(=O)N[C@@H](CC(C)C)C(=O)N[C@H](C(=O)N[C@@H](CCCN=C(N)N)C(=O)N[C@@H](Cc1c[nH]c2ccccc12)C(=O)N[C@H](C(=O)N[C@@H](CCCN=C(N)N)C(=O)N[C@@H](Cc1c[nH]c2ccccc12)C(=O)N[C@@H](CCCN=C(N)N)C(=O)N[C@H](C(=O)N[C@@H](CCC(N)=O)C(=O)N[C@@H](Cc1c[nH]c2ccccc12)C(N)=O)[C@@H](C)CC)[C@@H](C)CC)C(C)C [ILVRWIRWRIQW]

MIC (Bacillus subtilis): ≥ 64 µM
MIC (Escherichia coli): 8 µM (≈ 13.2 µg/mL)
MIC (Proteus vulgaris): ≥ 64 µM
MIC (Pseudomonas aeruginosa): 64 µM (≈ 106 µg/mL)
MIC (Salmonella typhimurium): 0.5 µM (≈ 0.825 µg/mL)
MIC [12]: ≥ 64 µM
MIC (Streptococcus pyogenes): ≥ 64 µM
SMILES: CC(C)C[C@H](NC(=O)[C@H](CCCN=C(N)N)NC(=O)[C@@H]1CCCN1C(=O)[C@H](Cc1cnc[nH]1)NC(=O)[C@@H]1CCCN1C(=O)[C@@H]1CCCN1C(=O)[C@H](CCCN=C(N)N)NC(=O)[C@@H]1CCCN1C(=O)[C@@H]1CCCN1C(=O)[C@H](Cc1cnc[nH]1)NC(=O)[C@@H]1CCCN1C(=O)[C@@H]1CCCN1C(=O)[C@H](CCCN=C(N)N)NC(=O)[C@@H]1CCCN1)C(=O)O [PRPPHPPRPPHPRL]

MIC (Candida albicans): 5.4 µM (≈ 8.35 µg/mL)
MIC [13]: 5.4 µM (≈ 8.35 µg/mL)
MIC (Escherichia coli UB1005): 2.7 µM (≈ 4.17 µg/mL)
MIC [14]: 5.4 µM (≈ 8.35 µg/mL)
MIC [15]: 2.7 µM (≈ 4.17 µg/mL)
MIC [16]: 0.7 µM (≈ 1.08 µg/mL)
MIC [12]: 0.7 µM (≈ 1.08 µg/mL)
SMILES: NCCCC[C@H](NC(=O)[C@H](Cc1c[nH]c2ccccc12)NC(=O)[C@H](Cc1c[nH]c2ccccc12)NC(=O)[C@H](CCCN=C(N)N)NC(=O)[C@@H](N)CCCN=C(N)N)C(=O)N[C@@H](Cc1c[nH]c2ccccc12)C(=O)N[C@@H](Cc1c[nH]c2ccccc12)C(=O)N[C@@H](Cc1c[nH]c2ccccc12)C(=O)N[C@@H](CCCN=C(N)N)C(=O)O [RRWWKWWWR]

MIC (Candida albicans): 4.12 µM (≈ 6 µg/mL)
MIC (Escherichia coli UB1005): 1.1 µM (≈ 1.6 µg/mL)
MIC [14]: 4.12 µM (≈ 6 µg/mL)
MIC [15]: 4.12 µM (≈ 6 µg/mL)
MIC [16]: 8.24 µM (≈ 12 µg/mL)
MIC [12]: 1.1 µM (≈ 1.6 µg/mL)
SMILES: CC[C@H](C)[C@H](NC(=O)[C@H](CCCN=C(N)N)NC(=O)[C@H](Cc1ccccc1)NC(=O)[C@H](CCCN=C(N)N)NC(=O)[C@@H](N)C(C)C)C(=O)N[C@@H](CCCN=C(N)N)C(=O)N[C@H](C(=O)N[C@@H](C)C(=O)N[C@H](C(=O)N[C@H](C(=O)N[C@@H](CCCN=C(N)N)C(=O)N[C@@H](C)C(N)=O)[C@@H](C)CC)C(C)C)C(C)C [VRFRIRVAVIRA]

MIC (Candida albicans): 10.8 µM (≈ 13.4 µg/mL)
MIC [13]: 2.7 µM (≈ 3.36 µg/mL)
MIC (Escherichia coli UB1005): 1.3 µM (≈ 1.62 µg/mL)
MIC [14]: 5.4 µM (≈ 6.72 µg/mL)
MIC [15]: 2.7 µM (≈ 3.36 µg/mL)
MIC [16]: 2.7 µM (≈ 3.36 µg/mL)
MIC [12]: 1.3 µM (≈ 1.62 µg/mL)
SMILES: CC[C@H](C)[C@H](NC(=O)[C@@H](NC(=O)[C@@H](NC(=O)[C@H](CCCN=C(N)N)NC(=O)[C@@H](NC(=O)[C@H](CCCN=C(N)N)NC(=O)[C@H](Cc1c[nH]c2ccccc12)NC(=O)[C@H](CCCCN)NC(=O)[C@@H](N)Cc1c[nH]c2ccccc12)C(C)C)C(C)C)[C@@H](C)O)C(=O)O [WKWRVRVTI]
